# Assay: recombinant barcode read abundance after kanamycin selection (control-corrected) (log10(CPM+1)); higher = more efficient recombination; sequences stand for … in AGTGCAGAGAAAATCGGCCAGTTTTCTCTGCCTGCAGTCCGCATGCCGT…AGATTTATGCAGCGGACTGCCTTTCTCCCAAAGTGATAAACCGGACAGTATCATGGACCGGTTTTCCCGGTAATCCGTATTTGCAAGGTTGGTTTCACT; site = the 11-nt target
# How it was run: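 Targets were screened in pooled form in E. coli against IS621 bridge RNA target-binding loops. Recombination efficiency is based on barcode counts at recombinant junctions in counts per million, averaged and corrected for the control. Numbers are shown as log10(CPM+1), with duplicate plates on chloramphenicol/ampicillin LB agar (control) or chloramphenicol/ampicillin/kanamycin with 0.1 mM IPTG.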
# 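Note: IS621 recombinase and bridge RNA in Escherichia coli cells.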
row,Sequence,recombinant barcode read abundance (log10)
1,GCGACTCCTTGGGTTCTAACCTGTTGCTT (site GCGACTCCTAA),0.0299
2,GCGACTCCTTGGGTTCTAACCTGTTGCTT (site GCGACTCCTAG),0.0916
3,GCGCACACTTGGGTTCTAACCTGTTGCCT (site ACGCACACTAG),0.851
4,GCGCACACTTGGGTTCTAACCTGTTGCCT (site CCGCACACTAG),0.206
5,GCGCACACTTGGGTTCTAACCTGTTGCCT (site GCGCACACTAG),1.05
6,GCGCACACTTGGGTTCTAACCTGTTGCCT (site TCGCACACTAG),0.319
7,GCGCATCCTTGGGTTCTAACCTGTTGCCT (site GCGAATCCTAG),0.719
8,GCGCATCCTTGGGTTCTAACCTGTTGCCT (site GCGCATCCTAG),0.753
9,GCGCATCCTTGGGTTCTAACCTGTTGCCT (site GCGGATCCTAG),0.306
10,GCGCATCCTTGGGTTCTAACCTGTTGCCT (site GCGTATCCTAG),0.0569
11,GCGCGTTCTTGGGTTCTAACCTGTTGCCT (site GCGAGCTCTAG),0.054
12,GCGCGTTCTTGGGTTCTAACCTGTTGCCT (site GCGCGTTCTAG),1.2
13,GCGGCTTCTTGGGTTCTAACCTGTTGCCT (site GAGGCTTCTAG),0.0638
14,GCGGCTTCTTGGGTTCTAACCTGTTGCCT (site GCGGCTTCTAG),0.868
15,GCGGCTTCTTGGGTTCTAACCTGTTGCCT (site GGGGCTTCTAG),0.0151
16,GCGGCTTCTTGGGTTCTAACCTGTTGCCT (site GTGGCTTCTAG),0.121
17,GCGTCGGCTTGGGTTCTAACCTGTTGCCT (site GCATCGGCTAG),0.474
18,GCGTCGGCTTGGGTTCTAACCTGTTGCCT (site GCCTCGGCTAG),0.177
19,GCGTCGGCTTGGGTTCTAACCTGTTGCCT (site GCGTCGGCTAG),0.183
20,GCGTCGGCTTGGGTTCTAACCTGTTGCCT (site GCTTCGGCTAG),0.405
21,GCGTGCCCTTGGGTTCTAACCTGTTGCCT (site CCGTGCCCTAG),0.552
22,GCGTGCCCTTGGGTTCTAACCTGTTGCCT (site GCGTGCCCTAG),0.82

row,Sequence,recombinant barcode read abundance (log10)
1,GCTAACCCTTGGGTTCTAACCTGTTGCCT (site ACTAAACCTAG),0.5
2,GCTAACCCTTGGGTTCTAACCTGTTGCCT (site GCTAACCCTAG),1.18
3,GCTAGTTCTTGGGTTCTAACCTGTTGCTT (site ACTCGTTCTAA),0.0742
4,GCTAGTTCTTGGGTTCTAACCTGTTGCTT (site GCTAGTTCTAA),0.351
5,GCTCATACTTGGGTTCTAACCTGTTGCCT (site CACGCGCCTCC),0.0433
6,GCTCATACTTGGGTTCTAACCTGTTGCCT (site GCTCATACTAG),0.714
7,GCTCTAGCTTGGGTTCTAACCTGTTGCTA (site ACTCTAGCTGA),0.143
8,GCTCTAGCTTGGGTTCTAACCTGTTGCTA (site GCTCTAGCTTA),0.515
9,GCTGCGACTTGGGTTCTAACCTGTTGCCT (site GCAGCGACTAG),0.17
10,GCTGCGACTTGGGTTCTAACCTGTTGCCT (site GCCGCGACTAG),0.101
11,GCTGCGACTTGGGTTCTAACCTGTTGCCT (site GCGGCGACTAG),0.0147
12,GCTGCGACTTGGGTTCTAACCTGTTGCCT (site GCTGCGACTAG),0.972
13,GCTGCGCCTTGGGTTCTAACCTGTTGCCT (site GCCGGGCCTAG),0.225
14,GCTGCGCCTTGGGTTCTAACCTGTTGCCT (site GCTGCGCCTAG),1.05
15,GCTGGGTCTTGGGTTCTAACCTGTTGCTT (site GCAGGGTCTAA),0.466
16,GCTGGGTCTTGGGTTCTAACCTGTTGCTT (site GCCGGGTCTAA),0.284
17,GCTGGGTCTTGGGTTCTAACCTGTTGCTT (site GCGGGGTCTAA),0.0202
18,GCTGGGTCTTGGGTTCTAACCTGTTGCTT (site GCTGGGTCTAA),1.65
19,GCTTGGACTTGGGTTCTAACCTGTTGCAG (site CCTTGGACTTT),0.175
20,GCTTGGACTTGGGTTCTAACCTGTTGCAG (site GCTTGGACTCT),1.72
21,GGAAGGCCTTGGGTTCTAACCTGTTGCTT (site GGAAGGCCTAA),0.221
22,GGAAGGCCTTGGGTTCTAACCTGTTGCTT (site TTGGTCACTTG),0.0545

row,Sequence,recombinant barcode read abundance (log10)
1,GGACACTCTTGGGTTCTAACCTGTTGCTA (site GGACACTCTAG),2.32
2,GGACACTCTTGGGTTCTAACCTGTTGCTA (site GGACACTCTTA),2.15
3,GGACATTCTTGGGTTCTAACCTGTTGCTT (site GGACATTCTAA),0.319
4,GGACATTCTTGGGTTCTAACCTGTTGCTT (site TGACATTCTAA),0.0458
5,GGACCCTCTTGGGTTCTAACCTGTTGCAC (site GGACCCTCTGT),1.76
6,GGACCCTCTTGGGTTCTAACCTGTTGCAC (site TACAAGACTAC),0.0797
7,GGACCTCCTTGGGTTCTAACCTGTTGCTT (site GGACCTCCTAA),1.33
8,GGACCTCCTTGGGTTCTAACCTGTTGCTT (site GGACCTCCTAC),0.221
9,GGACCTCCTTGGGTTCTAACCTGTTGCTT (site GGACCTCCTAG),1.27
10,GGACCTCCTTGGGTTCTAACCTGTTGCTT (site GGACCTCCTAT),1.32
11,GGACGCACTTGGGTTCTAACCTGTTGCGG (site CCTAAGCCTAT),0.604
12,GGACGCACTTGGGTTCTAACCTGTTGCGG (site GGACGCACTCC),2.4
13,GGACGCCCTTGGGTTCTAACCTGTTGCCT (site GGACGACCTAG),0.427
14,GGACGCCCTTGGGTTCTAACCTGTTGCCT (site GGACGCCCTAG),1.35
15,GGACGCCCTTGGGTTCTAACCTGTTGCCT (site GGACGGCCTAG),0.186
16,GGACGCCCTTGGGTTCTAACCTGTTGCCT (site GGACGTCCTAG),0.426
17,GGACGTCCTTGGGTTCTAACCTGTTGCCT (site GGACGACCTAG),0.0935
18,GGACGTCCTTGGGTTCTAACCTGTTGCCT (site GGACGCCCTAG),0.369
19,GGACGTCCTTGGGTTCTAACCTGTTGCCT (site GGACGGCCTAG),0.0468
20,GGACGTCCTTGGGTTCTAACCTGTTGCCT (site GGACGTCCTAG),0.734
21,GGAGAGTCTTGGGTTCTAACCTGTTGCCT (site GAAGAGTCTAG),2.17
22,GGAGAGTCTTGGGTTCTAACCTGTTGCCT (site GCAGAGTCTAG),0.995

row,Sequence,recombinant barcode read abundance (log10)
1,GGAGAGTCTTGGGTTCTAACCTGTTGCCT (site GGAGAGTCTAG),2.45
2,GGAGAGTCTTGGGTTCTAACCTGTTGCCT (site GTAGAGTCTAG),1.09
3,GGAGGAACTTGGGTTCTAACCTGTTGCCT (site GGAGGAACTAG),2.39
4,GGAGGAACTTGGGTTCTAACCTGTTGCCT (site GGAGGTACTAG),0.1
5,GGAGGACCTTGGGTTCTAACCTGTTGCTT (site GGAAGACCTTA),0.19
6,GGAGGACCTTGGGTTCTAACCTGTTGCTT (site GGAGGACCTAA),2.4
7,GGAGGGACTTGGGTTCTAACCTGTTGCCT (site GAAGGGACTAG),1.38
8,GGAGGGACTTGGGTTCTAACCTGTTGCCT (site GCAGGGACTAG),0.658
9,GGAGGGACTTGGGTTCTAACCTGTTGCCT (site GGAGGGACTAG),2.69
10,GGAGGGACTTGGGTTCTAACCTGTTGCCT (site GTAGGGACTAG),1.7
11,GGAGGTACTTGGGTTCTAACCTGTTGCCT (site GGAGGAACTAG),0.0658
12,GGAGGTACTTGGGTTCTAACCTGTTGCCT (site GGAGGTACTAG),1.17
13,GGAGGTCCTTGGGTTCTAACCTGTTGCTA (site GGAGGTCCTTA),2.08
14,GGAGGTCCTTGGGTTCTAACCTGTTGCTA (site TAAGGTCCTTA),0.0399
15,GGAGTACCTTGGGTTCTAACCTGTTGCAT (site CCTCATACTTG),0.0895
16,GGAGTACCTTGGGTTCTAACCTGTTGCAT (site GGAGTACCTAT),2.12
17,GGAGTTGCTTGGGTTCTAACCTGTTGCCT (site GGAGATTCTAG),0.273
18,GGAGTTGCTTGGGTTCTAACCTGTTGCCT (site GGAGTTGCTAG),2.27
19,GGATACACTTGGGTTCTAACCTGTTGCCT (site GGATACACTAG),2.06
20,GGATACACTTGGGTTCTAACCTGTTGCCT (site GGTTACACTAG),0.395
